From publication PMC5529658, “Antiproliferative and Antibacterial Activities of Cirsium scabrum from Tunisia” (Evidence-based Complementary and Alternative Medicine : eCAM, 2017)

How the values were obtained:
[1] = system: several cultured human cancer cell lines; conditions: cited from earlier work
[2] = system: Corynebacterium striatum T40A3; test: Antimicrobial assay (MIC, agar dilution); assay type: cell-based
Procedure: (§1) The antimicrobial activity of crude extract and partitions was evaluated against 36 pathogenic microorganisms (22 Gram-positive bacteria, 13 Gram-negative bacteria, and 1 yeast) according to Mahamodo et al.. The 36 microorganisms were grown overnight at 37°C on sloping Mueller-Hinton (MH) agar medium. Briefly, the bacteria were diluted with Ringer's Cysteine (RC) solution to obtain 10^6 bacteria/ml. […] Inocula of 10^4 colony forming units (CFU) were spotted ultimately with a multipoint inoculator (Steers Replicator).

[3] = system: Corynebacterium striatum T46C1; test: Antimicrobial assay (MIC, agar dilution); assay type: cell-based
Procedure: as §1

[4] = system: Dermabacter hominis T47A7; test: Antimicrobial assay (MIC, agar dilution); assay type: cell-based
Procedure: as §1

[5] = system: Dermabacter hominis T49B5; test: Antimicrobial assay (MIC, agar dilution); assay type: cell-based
Procedure: as §1

[6] = system: Enterococcus faecalis T37B1; test: Antimicrobial assay (MIC, agar dilution); assay type: cell-based
Procedure: as §1

[7] = system: Enterococcus faecalis T47A16; test: Antimicrobial assay (MIC, agar dilution); assay type: cell-based
Procedure: as §1

[8] = system: Escherichia coli T20A2; test: Antimicrobial assay (MIC, agar dilution); assay type: cell-based
Procedure: as §1

[9] = system: Pseudomonas aeruginosa ATCC9027; test: Antimicrobial assay (MIC, agar dilution); assay type: cell-based
Procedure: as §1

[10] = system: Pseudomonas aeruginosa T41; test: Antimicrobial assay (MIC, agar dilution); assay type: cell-based
Procedure: as §1

[11] = system: Staphylococcus aureus 8142; test: Antimicrobial assay (MIC, agar dilution); assay type: cell-based
Procedure: as §1

[12] = system: Staphylococcus aureus 8143; test: Antimicrobial assay (MIC, agar dilution); assay type: cell-based
Procedure: as §1

[13] = system: Staphylococcus aureus 8148; test: Antimicrobial assay (MIC, agar dilution); assay type: cell-based
Procedure: as §1

[14] = system: Staphylococcus aureus T11; test: Antimicrobial assay (MIC, agar dilution); assay type: cell-based
Procedure: as §1

[15] = system: Staphylococcus aureus T21; test: Antimicrobial assay (MIC, agar dilution); assay type: cell-based
Procedure: as §1

[16] = system: Staphylococcus aureus T2510; test: Antimicrobial assay (MIC, agar dilution); assay type: cell-based
Procedure: as §1

[17] = system: Staphylococcus aureus T26A4; test: Antimicrobial assay (MIC, agar dilution); assay type: cell-based
Procedure: as §1

[18] = system: Staphylococcus aureus T281; test: Antimicrobial assay (MIC, agar dilution); assay type: cell-based
Procedure: as §1

[19] = system: Staphylococcus aureus T306; test: Antimicrobial assay (MIC, agar dilution); assay type: cell-based
Procedure: as §1

[20] = system: Staphylococcus aureus T61; test: Antimicrobial assay (MIC, agar dilution); assay type: cell-based
Procedure: as §1

[21] = system: Staphylococcus capitis T21A3; test: Antimicrobial assay (MIC, agar dilution); assay type: cell-based
Procedure: as §1

[22] = system: Staphylococcus capitis T29A2; test: Antimicrobial assay (MIC, agar dilution); assay type: cell-based
Procedure: as §1

[23] = system: Staphylococcus epidermidis T151; test: Antimicrobial assay (MIC, agar dilution); assay type: cell-based
Procedure: as §1

[24] = system: Staphylococcus epidermidis T19A1; test: Antimicrobial assay (MIC, agar dilution); assay type: cell-based
Procedure: as §1

[25] = system: Staphylococcus lugdunensis T36A1; test: Antimicrobial assay (MIC, agar dilution); assay type: cell-based
Procedure: as §1

[26] = system: Staphylococcus lugdunensis T47B2; test: Antimicrobial assay (MIC, agar dilution); assay type: cell-based
Procedure: as §1

[27] = system: Staphylococcus pettenkoferi T282; test: Antimicrobial assay (MIC, agar dilution); assay type: cell-based
Procedure: as §1

[28] = system: Staphylococcus pettenkoferi T33; test: Antimicrobial assay (MIC, agar dilution); assay type: cell-based
Procedure: as §1

[29] = system: Staphylococcus saprophyticus 8237; test: Antimicrobial assay (MIC, agar dilution); assay type: cell-based
Procedure: as §1

[30] = system: WI38 (human normal fibroblast-like lung cell line); test: MTT cytotoxicity assay on WI38; assay type: cell-based; conditions: WI-38, 72 h, mean ± SEM, six determinations
Procedure: (§2) Cell Culture. The cytotoxicity was evaluated on two cell lines: J774 (macrophage-like cell line, derived from BALB/c murine reticulum cell sarcoma) and WI38 (human normal fibroblast-like lung cell line), using the tetrazolium salt MTT [3-(4,5-dimethylthiazol-2-yl)-2,5-diphenyltetrazolium bromide (Sigma)] colorimetric method, as described by Bero et al.. J774 cells were cultivated in a humidified atmosphere with 5% CO2 at 37°C in RPMI 1640 medium (Life Technologies, Paisley, UK) containing 2 mM L-glutamine supplemented with 10% heat-inactivated fetal bovine serum (Life Technologies) and penicillin-streptomycin (100 UI/ml). WI38 cells were cultivated in a humidified atmosphere with 5% CO2 at 37°C in DMEM medium (Life Technologies) containing 4 mM L-glutamine, 1 mM sodium pyruvate supplemented with 10% heat-inactivated fetal bovine serum (Life Technologies), and penicillin-streptomycin (100 UI/ml).
Cytotoxicity Assay. Briefly, WI38 or J774 cells were seeded in 96-well plates (5000 cells/well/180 µl medium or 2.8 × 10^4 cells/ml). After 24 h, cells were treated with 20 μl of crude extract and partitions solutions in a fixed concentration of 50 µg/ml to calculate cell viability percentage. […] Absorbance was recorded at 570 nm and 620 nm. […]
(§3) Cell viability% = [AT/ANT] × 100, with A: absorbance, NT: control cells, and T: treated cells.

[31] = system: J774 (macrophage-like cell line, derived from BALB/c murine reticulum cell sarcoma); test: MTT cytotoxicity assay on J774; assay type: cell-based; conditions: for IC50: Mus musculus, J774, MTT, 72 h, mean ± SEM, six determinations; for SI (IC50 WI38/IC50 J774): selectivity index WI38 vs J774
Procedure: as §2
Cytotoxicity Assay. Briefly, WI38 or J774 cells were seeded in 96-well plates (5000 cells/well/180 µl medium or 2.8 × 10^4 cells/ml). After 24 h, cells were treated with 20 μl of crude extract and partitions solutions in a fixed concentration of 50 µg/ml to calculate cell viability percentage. […] After 72 h, the medium was replaced by 100 μl of a 10% MTT solution (3 mg/ml in PBS) in medium. After 45 min, the medium was removed again and 100 μl of DMSO was added to solubilize formed formazan crystals. Absorbance was recorded at 570 nm and 620 nm. Each sample was tested in eight serial […] dilutions in 96-well microtiter plates, at least three wells per concentration in duplicate. Camptothecin (Sigma) was used as positive control (concentration range: 25–0.00032 µg/ml).
as §3

[32] = system: Streptococcus agalactiae T53A4; test: Antimicrobial assay (MIC, agar dilution); assay type: cell-based; conditions: vancomycin
Procedure: as §1

C[C@H](C/C=C/C(C)(C)OO)[C@H]1CC[C@@]2(C)[C@@H]3CC[C@H]4C(C)(C)[C@@H](O)CC[C@@]45C[C@@]35CC[C@]12C [Compound 3a, 25-hydroperoxycycloart-23-en-3β-ol]
cytotoxic activity [1]: significant cytotoxic activity

CNC(C)C1CCC(N)C(OC2C(N)CC(N)C(OC3OCC(C)(O)C(NC)C3O)C2O)O1 (stereo not drawn) [Gent, gentamicin]
Reference antibiotics MIC values ([2]; gentamicin): R (R: >8) | Reference antibiotics MIC values ([3]; gentamicin): S (Gent (gentamicin), S: ≤4) | Reference antibiotics MIC values ([4]; gentamicin): S (Gent (gentamicin), S: ≤4) | Reference antibiotics MIC values ([5]; gentamicin): S (Gent (gentamicin), S: ≤4) | Reference antibiotics MIC values ([6]; gentamicin): S (Gent (gentamicin), S: ≤4) | Reference antibiotics MIC values ([7]; gentamicin): S (Gent (gentamicin), S: ≤4) | Reference antibiotics MIC values ([8]; gentamicin): R (R: >8) | Reference antibiotics MIC values ([9]; gentamicin): S (Gent (gentamicin), S: ≤4) | Reference antibiotics MIC values ([10]; gentamicin): S (Gent (gentamicin), S: ≤4) | Reference antibiotics MIC values ([11]; gentamicin): S (Gent (gentamicin), S: ≤4) | Reference antibiotics MIC values ([12]; gentamicin): S (Gent (gentamicin), S: ≤4) | Reference antibiotics MIC values ([13]; gentamicin): S (Gent (gentamicin), S: ≤4) | Reference antibiotics MIC values ([14]; gentamicin): S (Gent (gentamicin), S: ≤4) | Reference antibiotics MIC values ([15]; gentamicin): S (Gent (gentamicin), S: ≤4) | Reference antibiotics MIC values ([16]; gentamicin): S (Gent (gentamicin), S: ≤4) | Reference antibiotics MIC values ([17]; gentamicin): S (Gent (gentamicin), S: ≤4) | Reference antibiotics MIC values ([18]; gentamicin): S (Gent (gentamicin), S: ≤4) | Reference antibiotics MIC values ([19]; gentamicin): S (Gent (gentamicin), S: ≤4) | Reference antibiotics MIC values ([20]; gentamicin): S (Gent (gentamicin), S: ≤4) | Reference antibiotics MIC values ([21]; gentamicin): S (Gent (gentamicin), S: ≤4) | Reference antibiotics MIC values ([22]; gentamicin): S (Gent (gentamicin), S: ≤4) | Reference antibiotics MIC values ([23]; gentamicin): R (R: >8) | Reference antibiotics MIC values ([24]; gentamicin): S (Gent (gentamicin), S: ≤4) | Reference antibiotics MIC values ([25]; gentamicin): S (Gent (gentamicin), S: ≤4) | Reference antibiotics MIC values ([26]; gentamicin): S (Gent (gentamicin), S: ≤4) | Reference antibiotics MIC values ([27]; gentamicin): S (Gent (gentamicin), S: ≤4) | Reference antibiotics MIC values ([28]; gentamicin): S (Gent (gentamicin), S: ≤4) | Reference antibiotics MIC values ([29]; gentamicin): S (Gent (gentamicin), S: ≤4)

C=C(C)C(CC[C@@H](C)[C@H]1CC[C@@]2(C)[C@@H]3CC[C@H]4C(C)(C)[C@@H](O)CC[C@@]45C[C@@]35CC[C@]12C)OO (stereo partly drawn) [Compound 3b, 24-hydroperoxycycloart-25-en-3β-ol]
cytotoxic activity [1]: significant cytotoxic activity

C=C(C)[C@@H]1CC[C@]2(C)CC[C@]3(C)[C@H](CC[C@@H]4[C@@]5(C)CC[C@H](O)C(C)(C)[C@@H]5CC[C@]43C)[C@@H]12 [Compound 1, lupeol]
IC50 [30]: 19.2 ± 0.55 µg/mL | IC50 [31]: 12.6 ± 0.23 µg/mL | SI (IC50 WI38/IC50 J774) [31]: 1.5^∗∗∗ | SI (IC50 WI38/IC50 J774) ([31]; listed as Lupeol): 1.5

CC[C@@]1(O)C(=O)OCc2c1cc1n(c2=O)Cc2cc3ccccc3nc2-1 [Camptothecin]
IC50 [30]: 0.175 ± 0.029 µg/mL | IC50 [31]: 0.011 ± 0.002 µg/mL | SI (IC50 WI38/IC50 J774) [31]: 15^∗∗∗

CN[C@H](CC(C)C)C(=O)N[C@H]1C(=O)N[C@@H](CC(N)=O)C(=O)N[C@H]2C(=O)N[C@H]3C(=O)N[C@H](C(=O)N[C@H](C(=O)O)c4cc(O)cc(O)c4-c4cc3ccc4O)[C@H](O)c3ccc(c(Cl)c3)Oc3cc2cc(c3O[C@@H]2O[C@H](CO)[C@@H](O)[C@H](O)[C@H]2O[C@H]2C[C@](C)(N)[C@H](O)[C@H](C)O2)Oc2ccc(cc2Cl)[C@H]1O [Vanc, vancomycin]
Reference antibiotics MIC values ([2]; vancomycin): S (Vanc (vancomycin), S: ≤4) | Reference antibiotics MIC values ([3]; vancomycin): S (Vanc (vancomycin), S: ≤4) | Reference antibiotics MIC values ([4]; vancomycin): S (Vanc (vancomycin), S: ≤4) | Reference antibiotics MIC values ([5]; vancomycin): S (Vanc (vancomycin), S: ≤4) | Reference antibiotics MIC values ([6]; vancomycin): S (Vanc (vancomycin), S: ≤4) | Reference antibiotics MIC values ([7]; vancomycin): S (Vanc (vancomycin), S: ≤4) | Reference antibiotics MIC values ([8]; vancomycin): R (R: >16) | Reference antibiotics MIC values ([9]; vancomycin): R (R: >16) | Reference antibiotics MIC values ([10]; vancomycin): R (R: >16) | Reference antibiotics MIC values ([11]; vancomycin): S (Vanc (vancomycin), S: ≤4) | Reference antibiotics MIC values ([12]; vancomycin): S (Vanc (vancomycin), S: ≤4) | Reference antibiotics MIC values ([13]; vancomycin): S (Vanc (vancomycin), S: ≤4) | Reference antibiotics MIC values ([14]; vancomycin): S (Vanc (vancomycin), S: ≤4) | Reference antibiotics MIC values ([15]; vancomycin): S (Vanc (vancomycin), S: ≤4) | Reference antibiotics MIC values ([16]; vancomycin): S (Vanc (vancomycin), S: ≤4) | Reference antibiotics MIC values ([17]; vancomycin): S (Vanc (vancomycin), S: ≤4) | Reference antibiotics MIC values ([18]; vancomycin): S (Vanc (vancomycin), S: ≤4) | Reference antibiotics MIC values ([19]; vancomycin): S (Vanc (vancomycin), S: ≤4) | Reference antibiotics MIC values ([20]; vancomycin): S (Vanc (vancomycin), S: ≤4) | Reference antibiotics MIC values ([21]; vancomycin): S (Vanc (vancomycin), S: ≤4) | Reference antibiotics MIC values ([22]; vancomycin): S (Vanc (vancomycin), S: ≤4) | Reference antibiotics MIC values ([23]; vancomycin): S (Vanc (vancomycin), S: ≤4) | Reference antibiotics MIC values ([24]; vancomycin): R (R: >16) | Reference antibiotics MIC values ([25]; vancomycin): S (Vanc (vancomycin), S: ≤4) | Reference antibiotics MIC values ([26]; vancomycin): S (Vanc (vancomycin), S: ≤4) | Reference antibiotics MIC values ([27]; vancomycin): S (Vanc (vancomycin), S: ≤4) | Reference antibiotics MIC values ([28]; vancomycin): S (Vanc (vancomycin), S: ≤4) | Reference antibiotics MIC values ([29]; vancomycin): S (Vanc (vancomycin), S: ≤4) | Reference antibiotics MIC values [32]: R (R: >16)
